Results on 1 compound are retold here after patent US9487508B2, “SGC stimulators” (IRONWOOD PHARMACEUTICALS, INC., priority 2012, dated 2016).

The target of experiment [1] is T1, Human soluble guanylate cyclase enzyme (hsGC) (Homo sapiens, UniProt Q02108+Q02153).
T1 construct: purchased Enzo Inc. ALX-201-177
T1 sequence (Q02153 1-619): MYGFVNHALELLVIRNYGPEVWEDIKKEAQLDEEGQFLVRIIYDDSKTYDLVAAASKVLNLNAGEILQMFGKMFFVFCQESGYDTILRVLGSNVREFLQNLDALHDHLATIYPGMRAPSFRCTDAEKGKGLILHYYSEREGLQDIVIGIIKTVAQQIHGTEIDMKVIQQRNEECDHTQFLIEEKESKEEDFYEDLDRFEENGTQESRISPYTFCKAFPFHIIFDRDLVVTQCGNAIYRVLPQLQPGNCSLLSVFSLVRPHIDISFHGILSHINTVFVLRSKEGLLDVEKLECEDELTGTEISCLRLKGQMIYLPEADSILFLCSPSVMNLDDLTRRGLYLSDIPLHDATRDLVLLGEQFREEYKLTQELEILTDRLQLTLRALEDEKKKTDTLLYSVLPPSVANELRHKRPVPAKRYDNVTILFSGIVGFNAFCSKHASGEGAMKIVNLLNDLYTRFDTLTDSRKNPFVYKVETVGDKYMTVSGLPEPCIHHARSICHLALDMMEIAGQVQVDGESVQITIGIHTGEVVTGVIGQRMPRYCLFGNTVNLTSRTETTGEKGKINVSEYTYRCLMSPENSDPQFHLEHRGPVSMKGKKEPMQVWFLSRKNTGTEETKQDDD
T1 sequence (Q02108 1-690): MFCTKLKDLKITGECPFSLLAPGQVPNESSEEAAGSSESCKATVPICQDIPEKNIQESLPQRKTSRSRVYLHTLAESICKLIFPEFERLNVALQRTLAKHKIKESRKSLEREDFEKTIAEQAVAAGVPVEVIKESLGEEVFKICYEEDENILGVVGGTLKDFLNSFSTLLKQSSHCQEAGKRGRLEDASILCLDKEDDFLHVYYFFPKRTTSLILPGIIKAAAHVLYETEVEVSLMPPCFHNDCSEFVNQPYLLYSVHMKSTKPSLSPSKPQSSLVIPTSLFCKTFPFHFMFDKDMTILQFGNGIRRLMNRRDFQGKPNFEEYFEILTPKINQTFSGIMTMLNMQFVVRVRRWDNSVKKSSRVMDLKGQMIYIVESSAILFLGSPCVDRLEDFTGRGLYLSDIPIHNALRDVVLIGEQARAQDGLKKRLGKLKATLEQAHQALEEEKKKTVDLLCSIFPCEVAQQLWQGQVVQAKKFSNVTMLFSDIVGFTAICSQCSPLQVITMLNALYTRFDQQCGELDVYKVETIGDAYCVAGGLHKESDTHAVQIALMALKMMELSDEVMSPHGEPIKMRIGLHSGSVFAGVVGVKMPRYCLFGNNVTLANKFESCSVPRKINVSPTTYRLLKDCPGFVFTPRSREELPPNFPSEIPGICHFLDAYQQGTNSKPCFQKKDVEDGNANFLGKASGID
Nature of the experiment: Purified human sGC enzyme activity assay (without SNP). In kind it is biochemical. The note with it: 30 μM compound, fold change of specific activity vs DMSO control. The protocol: Human soluble guanylate cyclase enzyme (hsGC) obtained from Enzo Inc. (P/N: ALX-201-177) was used to evaluate the activity of test compounds. The assay reactions contained 0.1 M Tris (pH 8.0), 0.5 mg/mL BSA (pH 8.0), 2 mM DTT, 2 mM MgCl2, 300 μM GTP, 1 mM 3-isobutyl-1-methylxanthine (IBMX) and 5 ng human soluble guanylate cyclase enzyme. Test compounds in DMSO were then added (2 μL, 10 or 30 μM final concentration) and incubated (water, 200 μL, 96-well plate format) at 37° C. for 30 minutes. The controls were carried out using 2 μL DMSO. After the 30 minute incubation, the reaction was stopped with the addition of 200 μL of cold methanol. The plate was then centrifuged at 3,200 rpm for 10 minutes at room temperature. Supernatants (200 μL) were collected and transferred to a new 96 well plate for analysis by HPLC LC/MS/MS.
An 8 point cGMP (Sigma-Aldrich P/N: G6129) standard curve was prepared in assay buffer ranging from 0.156-20 μM. Samples for the cGMP standard curve were then diluted with an equal volume of methanol resulting in final cGMP concentrations of 0.078-10 μM.
The cGMP standard curve was generated using GraphPad Prism Software.
Calculations: Specific Activity was determined by the amount of cGMP formed (nmoles) per mg of sGC per min. Enzyme “fold-change” was calculated by dividing Specific Activity for test compounds by Specific Activity of DMSO controls.

The test system of the next experiment is Thoracic aortic rings. The experiment is described as follows: Thoracic aortic rings assay (Example 5). On the set-up: species or system Sprague-Dawley rats. The note with it: rings contracted with 100 ng/mL phenylephrine. As for the experimental part:
Thoracic aortic rings were dissected from anesthetized (isoflurane) male Sprague-Dawley rats weighing 275-299 g. Tissues were immediately transferred to ice-cold Krebs-Henseleit solution, which had been aerated with 95% O2 and 5% CO2 for 30 minutes. Following removal of connective tissue, aortic sections were cut into 4 rings (˜2 mm each) and suspended on 2 L-shaped hooks, with one hook fixed at the bottom of the tissue bath (Schuler Organ Bath, Harvard Apparatus) and the other connected to a force transducer (F30 Force Transducer, Harvard Apparatus). Baths contained Krebs Henseleit solution (10 mL) heated to 37° C. and aerated with 95% O2 and 5% CO2. Rings were brought to an initial tension of 0.3-0.5 g and gradually raised to a resting tension of 1.0 g over 60 minutes. Rings were rinsed with Krebs Henseleit solution (heated to 37° C. and aerated with 95% 02 and 5% CO2) at 15 minute intervals until a stable baseline was obtained. Rings were considered to be stable after a resting tension of 1.0 g was maintained (for approximately 10 minutes) without need for adjustment. Rings were then contracted with 100 ng/mL phenylephrine by adding 100 uL of a 10 µg/mL phenylephrine stock solution. Tissues achieving a stable contraction were then treated in a cumulative, dose dependent manner with test compounds prepared in dimethylsulfoxide (DMSO). In some cases, tissues were rinsed three times over a 5 minute period with Krebs-Heinseleit's solution (heated to 37° C. and aerated with 95% 02 and 5% CO2), allowed to stabilize at baseline, and then used for characterization of other test articles or DMSO effects. All data were collected using the HSE-ACAD software provided by Harvard Apparatus. Percent relaxation effects were calculated in Microsoft Excel using the recorded tension value of 100 ng/mL phenylephrine treatment as 0% inhibition and treatment with 100 μM 3-isobutyl-1-methylxanthine as 100% inhibition. EC50 values were calculated from concentration-response curves generated with GraphPad Prism Software.
As an alternative thoracic aortic rings assay, the procedure of Example 5 was used except that percent relaxation effects were calculated in Microsoft Excel using the recorded tension value of 100 ng/mL phenylephrine treatment as 0% inhibition and, after washing the tissue with buffer, the original resting tension of the tissue was used as 100% inhibition.
The biological data for some of the compounds of Formula I or Formula Ib, in comparison with the known compound, BAY 41-2272, as the reference compound, determined by the thoracic aorta ring assay of Example 5 are presented in Table 6 below.

As usually defined, the EC50 is the midpoint of the concentration-response curve.

Each structure is given as a SMILES string.

As for `Nc1ccnc(-n2cc(-c3ncco3)c(Cc3ccccc3F)n2)n1` [Compound I-2], the “Enzyme Activity (increase at 30 μM without SNP)” value in experiment [1] is recorded as “C (C = 5 to <10 fold increase)”. Also, in the experiment with Thoracic aortic rings (1 μM, resting tension = 100%), the “Aortic Ring Percent Relaxation at 1 μM” value was “E (E = 60 or <80%)”. The “Aortic Ring Percent Relaxation at 3 μM” value in the experiment with Thoracic aortic rings (3 μM, resting tension = 100%) was “F (F = 80 to <100%)”. In addition, the “Aortic Ring Percent Relaxation at 10 μM” value in the experiment with Thoracic aortic rings (10 μM, resting tension = 100%) is recorded as “G (G = 100 to <120%)”. Further, in the experiment on Thoracic aortic rings (Rattus norvegicus, read-out: Aortic Ring EC50), the concentration for a half-maximal effect (EC50) is < 2000 nM.
